target: T1, queuine-tRNA ribosyltransferase enzyme complex (hQTRT1:hQTRT2) (Homo sapiens, UniProt Q9BXR0); test: [8-14C] guanine displacement assay (tRNA*); assay type: biochemical; details: 50 μM compound, 100 nM hQTRT1:hQTRT2, 30 mins at 37° C.; background ≤2%; ≥5% counts as positive substrate for TGT
T1 construct: polyhistidine tag (N); made in house; host or cells: E. coli BL21(DE3) tgt::Kmr
Protocol: Compounds capable of acting as a queuine-tRNA ribosyltransferase enzyme complex substrate may be identified by use of a displacement assay as described below:
Production of [8-^14C] Guanine Labeled tRNA (tRNA*)
Before adding the 8-[^14C] guanine solution to the reaction the solution was neutralised with an equal volume (vol/vol) 0.01 M NaOH, as the [8-^14C] Guanine is supplied in 0.01 M HCl aqueous solution. In vitro synthesised human tyrosyl tRNA was prepared by T7 transcription in ultrapure nuclease-free water as described previously (Alqasem et al., 2020). Recombinant human QTRT1 enzyme containing an N-terminalpolyhistidine tag and human QTRT2 containing a C-terminal TEV-Strep-Tag®II tag were produced in BL21(DE3) tgt::Kmr cells as described previously (Alqasem et al., 2020).
The reaction was incubated for 1 hour at 37° C. […] The tRNA* pellet was resuspended in 30 μL nuclease-free water and the concentration measured spectrophotometrically at A260. […]
After 30 mins the reactions were quenched by mixing with 2.5 ml ice-cold 10% trichloroacetic acid (TCA) and placed on ice for one hour to precipitate the tRNA. […] The vacuum manifold was disassembled, the filters recovered and dried again at room temperature before being placed in scintillation vials containing 10 ml of Ecoscint A and radioactivity levels measured by scintillation counting. […]

T1 sequence (Q9BXR0 whole entry): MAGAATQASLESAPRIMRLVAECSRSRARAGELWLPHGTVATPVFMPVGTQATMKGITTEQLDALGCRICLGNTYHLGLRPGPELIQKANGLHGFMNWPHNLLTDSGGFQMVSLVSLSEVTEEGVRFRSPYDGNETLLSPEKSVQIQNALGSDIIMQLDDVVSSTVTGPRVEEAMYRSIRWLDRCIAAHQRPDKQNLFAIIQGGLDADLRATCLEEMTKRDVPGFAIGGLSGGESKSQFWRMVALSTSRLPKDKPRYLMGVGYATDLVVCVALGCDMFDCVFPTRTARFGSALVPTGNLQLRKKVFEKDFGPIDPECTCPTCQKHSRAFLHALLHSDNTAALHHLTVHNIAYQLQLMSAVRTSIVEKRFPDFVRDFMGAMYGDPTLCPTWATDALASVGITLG
T1 sequence (Q9H974 whole entry partner): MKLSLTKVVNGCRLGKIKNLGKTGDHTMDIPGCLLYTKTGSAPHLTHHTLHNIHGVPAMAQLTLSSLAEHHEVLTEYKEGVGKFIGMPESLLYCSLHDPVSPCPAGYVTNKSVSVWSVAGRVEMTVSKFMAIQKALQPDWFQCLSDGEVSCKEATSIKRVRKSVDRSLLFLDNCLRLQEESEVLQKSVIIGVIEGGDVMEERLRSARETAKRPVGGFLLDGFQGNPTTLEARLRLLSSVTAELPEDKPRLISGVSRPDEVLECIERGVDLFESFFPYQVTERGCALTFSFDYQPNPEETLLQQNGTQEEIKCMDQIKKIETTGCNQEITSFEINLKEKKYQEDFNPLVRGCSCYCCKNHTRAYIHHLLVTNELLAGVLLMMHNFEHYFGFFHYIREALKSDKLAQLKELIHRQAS

displacement of the [14C] guanine | Compound
> 98% | Nc1nc2[nH]cc(CN[C@H]3C=C[C@H](O)[C@@H]3O)c2c(=O)[nH]1 [queuine base, queuine]

test system: RA synovial primary fibroblasts (RASFCs); test: Synovial fibroblast assay, IL-6 ELISA on TNF-treated RASFC supernatants; assay type: cell-based, human; details: 200 μm compound, TNF 10 ng/ml, supernatants at 72 hr, n=3 RASFCs, DMSO vehicle = 100%
Protocol: To assess the compounds in human rheumatoid arthritis samples the following protocol was employed:
Isolation of Primary Fibroblasts (RASFCs): RA synovial biopsies were digested with 1 mg/ml collagenase type 1 (Worthington Biochemical, Freehold, NJ, USA) in RPMI-1640 (Gibco-BRL, Paisley, UK) for 4 hr at 37° C. in humidified air with 5% CO2. Dissociated cells were grown to confluence in RPMI 1640, 10% FCS (Gibco-BRL), 10 ml of 1 mmol/l HEPES (Gibco-BRL), penicillin (100 units/ml; Bioscience), streptomycin (100 units/ml; Bioscience) and fungizone (0.25 μg/ml; Bioscience) before passaging. Cells were used between passages 3-8.
Compounds (200 μm) were Tested on n=3 RASFCs
RASFCs were grown to 80% confluency in 48 well plates. RASFCs were treated with TNF (10 ng/ml) in the presence of 200 μm of each compound. Media was replaced after 24 h and fresh media and compound was added. Cell supernatants were collected at 72 hr time point. DMSO treated cells were used as a vehicle control (Red dotted line represents DMSO control). IL-6 ELISA: Levels of pro-inflammatory cytokine IL6 were measured in cultured RASFC supernatants by specific ELISA (R&D systems, UK) according to manufacturer's conditions.
This assay measures the production of IL-6 as an indication of immune system activation: the lower the value the better from the point of view of alleviating RA symptoms. All compounds of the invention show an effect compared to the DMSO vehicle that represents no treatment. […]

Compound | Level of IL6 expression compared to vehicle
CC(C)(CCNCc1c[nH]c2nc(N)[nH]c(=O)c12)c1ccccc1.Cl [Example 1, N-((2-amino-4-oxo-4,7-dihydro-3H-pyrrolo[2,3-d]pyrimidin-5-yl)methyl)-3-methyl-3-phenylbutan-1-ammonium chloride] | Reduction to 37%
Cl.Nc1nc2[nH]cc(CNCCNc3ccccc3)c2c(=O)[nH]1 [Example 5, N-((2-amino-4-oxo-4,7-dihydro-3H-pyrrolo[2,3-d]pyrimidin-5-yl)methyl)-2-(phenylamino)ethan-1-aminium chloride] | Reduction to 48%
Cl.Nc1nc2[nH]cc(CNCCC(=O)c3ccccc3)c2c(=O)[nH]1 [Example 7, N-((2-amino-4-oxo-4,7-dihydro-3H-pyrrolo[2,3-d]pyrimidin-5-yl)methyl)-3-oxo-3-phenylpropan-1-ammonium chloride] | Reduction to 32%
Cl.Nc1nc2[nH]cc(CNCCC(c3ccccc3)c3ccccc3)c2c(=O)[nH]1 [Example 10, N-((2-amino-4-oxo-4,7-dihydro-3H-pyrrolo[2,3-d]pyrimidin-5-yl)methyl)-3,3-diphenylpropan-1-ammonium chloride] | Reduction to 56%
Cl.Nc1nc2[nH]cc(CNCC[C@@H](O)c3ccccc3)c2c(=O)[nH]1 [Example 12, (R)-N-((2-amino-4-oxo-4,7-dihydro-3H-pyrrolo[2,3-d]pyrimidin-5-yl)methyl)-3-hydroxy-3-phenylpropan-1-aminium chloride] | Reduction to 55%
Cl.Nc1nc2[nH]cc(CNCC[C@H](O)c3ccccc3)c2c(=O)[nH]1 [Example 13, (S)-N-((2-amino-4-oxo-4,7-dihydro-3H-pyrrolo[2,3-d]pyrimidin-5-yl)methyl)-3-hydroxy-3-phenylpropan-1-aminium chloride] | Reduction to 67%
C[C@@H]1CCN(C(=O)CC#N)C[C@@H]1N(C)c1ncnc2[nH]ccc12 [Positive control (Tofacitinib), Tofacitinib, reference compound] | Reduction to 57%

— US20230295165A1, “COMPOUNDS” (The Provost, Fellows, Foundation Scholars, and the other …, priority 2020, published 2023)
